What all share (type): in vivo
The subject of experiment [1] is Alopecurus myosuroides (ALOMY). As to the kind of experiment: Example B pre-emergence herbicidal test, glasshouse. The conditions noted are these: 312 h, evaluated after 13 days, 100=total damage to plant, 0=no damage to plant; for pest or weed control at 1000 g/ha: rate 1000 g/ha. The essentials: (§1)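 Test species were grown from seed in standard soil and sprayed with the formulated compound either pre-emergence (1 day after sowing) or post-emergence (8 days). Plants then remained under controlled glasshouse conditions for 13 days before phytotoxicity was rated from 0 (no damage) to 100 (total damage).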

Experiment [2] has as its system Amaranthus retoflexus (AMARE). Described as above. As to conditions: Amaranthus retroflexus, 312 h, evaluated after 13 days, 100=total damage to plant, 0=no damage to plant; for pest or weed control at 1000 g/ha: rate 1000 g/ha. The essentials: as §1
Experiment [3] concerns Avena fatua (AVEFA). Described as above. As to conditions: 312 h, evaluated after 13 days, 100=total damage to plant, 0=no damage to plant; for pest or weed control at 1000 g/ha: rate 1000 g/ha. The essentials: as §1
Experiment [4] concerns Echinochloa crus-galli (ECHCG). Described as above. As to conditions: evaluated after 13 days, 100=total damage to plant, 0=no damage to plant; for Pre-Emergence Activity ECHCG: rate 1000 g/ha. The essentials:
as §1

For experiment [5], the system named is Setaria faberi (SETFA). Described as above. As to conditions: evaluated after 13 days, 100=total damage to plant, 0=no damage to plant; for Pre-Emergence Activity SETFA: rate 1000 g/ha. In a few lines: as §1
The test system of experiment [6] is Solanum nigrum (SOLNI). Described as above. The conditions noted are these: rate 1000 g/ha, evaluated after 13 days, 100=total damage to plant, 0=no damage to plant. In a few lines:
as §1

Experiment [7] deals with Alopecurus myosuroides (ALOMY). As to the kind of experiment: Example B post-emergence herbicidal test, glasshouse. As to conditions: 312 h, evaluated after 13 days, read-out: Post-Emergence Activity ALOMY (100=total damage to plant; 0=no damage to plant); for pest or weed control at 1000 g/ha: rate 1000 g/ha. The essentials:
as §1

The test system of experiment [8] is Amaranthus retoflexus (AMARE). Described as above. As to conditions: Amaranthus retroflexus, 312 h, evaluated after 13 days, read-out: Post-Emergence Activity AMARE (100=total damage to plant; 0=no damage to plant); for pest or weed control at 1000 g/ha: rate 1000 g/ha. In a few lines:
as §1

In experiment [9] the test system is Avena fatua (AVEFA). The experiment is described as above. As to conditions: 312 h, evaluated after 13 days, read-out: Post-Emergence Activity AVEFA (100=total damage to plant; 0=no damage to plant); for pest or weed control at 1000 g/ha: rate 1000 g/ha. The essentials:
as §1

The test system of experiment [10] is Echinochloa crus-galli (ECHCG). The experiment is described as above. The conditions noted are these: 312 h, evaluated after 13 days; for pest or weed control at 1000 g/ha: rate 1000 g/ha, read-out: Post-Emergence Activity ECHCG (100=total damage to plant; 0=no damage to plant). The essentials: as §1
The test system of experiment [11] is Setaria faberi (SETFA). The experiment is described as above. The conditions noted are these: 312 h, evaluated after 13 days; for pest or weed control at 1000 g/ha: rate 1000 g/ha, read-out: Post-Emergence Activity SETFA (100=total damage to plant; 0=no damage to plant). The essentials: as §1
The test system of experiment [12] is Solanum nigrum (SOLNI). The experiment is described as above. As to conditions: 312 h, rate 1000 g/ha, evaluated after 13 days, read-out: Post-Emergence Activity SOLNI (100=total damage to plant; 0=no damage to plant). In a few lines:
as §1

Molecules are shown by their SMILES.

Turning to `Cc1sc(-c2ccc(F)cc2)nc1C1C(=O)C(C)(C)C(=O)C(C)(C)C1=O` [Compound T8], the pest or weed control at 1000 g/ha in experiment [1] was found to be 30%; in [2] it was 0%; in experiment [3], 20%; in experiment [7] it was 40%; in experiment [8], 0%; in experiment [9], 0%. The pest or weed control at 1000 g/ha in experiment [10] turned out to be 70%; in experiment [11] it was 80%; in experiment [12], 20%. Also, the “Pre-Emergence Activity ECHCG” value in [4] is reported as 0. Besides, the “Pre-Emergence Activity SETFA” value in experiment [5] turned out to be 0. Moreover, the “Pre-Emergence Activity SOLNI” value in [6] turned out to be 0.

On to `Cc1sc(-c2cc(Cl)ccc2Cl)nc1C1C(=O)C(C)(C)C(=O)C(C)(C)C1=O` [Compound T10, 6-[2-(2,5-dichlorophenyl)-5-methylthiazol-4-yl]-2,2,4,4-tetramethyl-cyclohexane-1,3,5-trione], for which the pest or weed control at 1000 g/ha stood at 30% in experiment [1]; 0% in [2]; 20% in experiment [3]; 40% in experiment [7]; 0% in experiment [8]; 0% in experiment [9]. The pest or weed control at 1000 g/ha in [10] was determined as 70%; in [11], 80%; in [12], 20%. Also, in experiment [4], the “Pre-Emergence Activity ECHCG” value is reported as 0. For the same molecule, the “Pre-Emergence Activity SETFA” value in experiment [5] is 0. Further, in experiment [6], the “Pre-Emergence Activity SOLNI” value was determined as 0.

Regarding `CCc1sc(-c2ccc(Cl)cc2)nc1C1=C(OC(=O)C(C)(C)C)C(C)(C)OC(C)(C)C1=O` [Compound P2, 2,2-dimethylpropionic acid 4-[2-(4-chlorophenyl)-5-ethylthiazol-4-yl]-2,2,6,6-tetramethyl-5-oxo-5,6-dihydro-2H-pyran-3-yl ester], the pest or weed control at 1000 g/ha in [1] was determined as 60%; in experiment [2] it was 80%; in experiment [3] it was 30%; in experiment [7], 90%; in experiment [8], 0%; in experiment [9], 90%. Further, the figures for the pest or weed control at 1000 g/ha in experiment [10], in experiment [11] and in experiment [12] were 100%, 100% and 0%, respectively. In addition, in experiment [4], the “Pre-Emergence Activity ECHCG” value is 50. Moreover, the “Pre-Emergence Activity SETFA” value in experiment [5] worked out at 80. For the same molecule, the “Pre-Emergence Activity SOLNI” value in experiment [6] was 0.

Turning to `Cc1sc(-c2ccc(Cl)cc2)nc1C1C(=O)C(C)(C)C(=O)C(C)(C)C1=O` [Compound T1], the pest or weed control at 1000 g/ha in experiment [7] turned out to be 90%; in [8], 0%; in [9], 80%; in experiment [10] it was 90%; in experiment [11] it was 90%; in experiment [12], 0%.

For `Cc1sc(OCc2cnc(Br)s2)nc1C1C(=O)C(C)(C)OC(C)(C)C1=O` [Compound T14], the pest or weed control at 250 g/ha in experiment [1] (rate 250 g/ha) came out at 0%; in [2] (rate 250 g/ha), 0%; in experiment [3] (rate 250 g/ha), 0%; in experiment [4] (Echinochloa crus-galli, 312 h, rate 250 g/ha, read-out: Pre-Emergence Activity ECHGG), 0%; in experiment [5] (Setaria faberi, 312 h, rate 250 g/ha, read-out: Pre-Emergence Activity SEFTA), 50%; in [7] (rate 250 g/ha), 40%. Moreover, the pest or weed control at 250 g/ha is 0% in [8] (rate 250 g/ha); 0% in [9] (rate 250 g/ha); 70% in [10] (rate 250 g/ha, read-out: Post-Emergence Activity ECHGG (100=total damage to plant; 0=no damage to plant)); 90% in experiment [11] (rate 250 g/ha, read-out: Post-Emergence Activity SEFTA (100=total damage to plant; 0=no damage to plant)). In addition, the pest or weed control at 1000 g/ha in experiment [1] amounted to 40%; in experiment [2] it was 0%; in experiment [3] it was 0%. In addition, the “Pre-Emergence Activity ECHCG” value in experiment [4] came to 0. In experiment [5], the “Pre-Emergence Activity SETFA” value was found to be 0. Moreover, the “Pre-Emergence Activity SOLNI” value in experiment [6] is 0.

On to `COC(=O)c1ccc(-c2cc(C3C(=O)C(C)(C)OC(C)(C)C3=O)c(C)s2)cc1` [Compound T20], for which the pest or weed control at 1000 g/ha in experiment [1] turned out to be 30%; in [2], 80%; in experiment [3], 0%; in experiment [7] it was 0%; in experiment [8] it was 0%; in experiment [9], 0%. The pest or weed control at 1000 g/ha in experiment [10] stood at 0%; in experiment [11] it was 10%; in experiment [12], 0%. In [4], the “Pre-Emergence Activity ECHCG” value stood at 0. Besides, the “Pre-Emergence Activity SETFA” value in experiment [5] turned out to be 0. Besides, the “Pre-Emergence Activity SOLNI” value in experiment [6] was 70.

With `Cc1sc(-c2ccc(Cl)c(C(F)(F)F)c2)nc1C1C(=O)C(C)(C)OC(C)(C)C1=O` [Compound T15], the pest or weed control at 1000 g/ha in experiment [7] was 40%; in [8] it was 0%; in [9] it was 0%; in [10], 70%; in [11], 0%; in experiment [12] it was 0%.

Consider `Cc1ocnc1C1C(=O)C(C)(C)C(=O)C(C)(C)C1=O` [Compound T2], for which the pest or weed control at 1000 g/ha in [1] was 0%; in experiment [2], 50%; in experiment [3] it was 0%; in [7], 0%; in experiment [8] it was 0%; in experiment [9] it was 0%. In addition, the pest or weed control at 1000 g/ha came to 0% in experiment [10], 0% in experiment [11] and 40% in experiment [12]. In addition, in experiment [4], the “Pre-Emergence Activity ECHCG” value is recorded as 0. In [5], the “Pre-Emergence Activity SETFA” value turned out to be 0. The “Pre-Emergence Activity SOLNI” value in experiment [6] amounted to 60.
